Measurements from paper PMC8215932, “Novel neuroprotective peptides in the venom of the solitary scoliid wasp Scolia decorata ventralis” (The Journal of Venomous Animals and Toxins Including …, 2021).
Where no end group is shown, it is not given here.

Tests used:
PC12 cells [1] = system: PC12 cells
Procedure: (§1) Neuronal cell line (PC12) was used to evaluate the neuroprotective effects of α-scoliidine and β-scoliidine against oxidative stress in vitro. PC12 cell is derived from a transplantable rat pheochromocytoma and was purchased from American Type Culture Collection (USA) (ATCC® CRL-1721™). Cells were routinely cultured in DMEM medium (Sigma-Aldrich) supplemented with 10% fetal bovine serum (Gibco, Waltham, USA), 1% (v/v) of 10000 U/mL penicillin, 10 mg/mL streptomycin and 25 μg/mL amphotericin B solution (Sigma-Aldrich) at 37 °C in an atmosphere of 5% CO2 and 95% air (Water Jacketed CO2 Incubator, Thermo Scientific). At 80% confluence, cells were passaged using trypsin-EDTA solution [0.05% (m/v) trypsin and 0.02% (m/v) EDTA]. Culture medium was replaced every 2-3 days.
PC12 cells were seeded into 96-well plates (Nest Biotechnology, Rahway, USA), at 2.0 × 10^4 cells per well, and were treated with different concentrations (0.1 to 10 µM) of α-scoliidine and β-scoliidine in a final volume of 0.15 mL. The plate was incubated at 37°C for 3, 6, 12, 24, and 48 h. For each concentration and time course studied, there were control and DMSO groups, which represent untreated cells (only one equal volumes of the culture medium) and treated with DMSO 2.5% (v/v) diluted in the medium culture, respectively. The cytotoxic effects of both compounds were determined using crystal violet assay, according to Feoktistova et al.. Briefly, the medium was aspirated, and the cells were washed twice in a gentle stream of tap water. Then, 50 μL of a 0.5 % (v/v) crystal violet staining solution was added to each well, and incubated for 20 min at room temperature on a bench rocker with a frequency of 20 oscillations per min. The plate was washed four times and air-dried for at least 2 h at room temperature. Subsequently, methanol (200 μL) was added to each well, and the plate was incubated with its lid on for 20 min at room temperature on a bench rocker with a frequency of 20 oscillations per min. After, the absorbance of the sample was measured at 570 nm using a SpectraMax reader (Molecular Devices, CA, USA). The cytotoxicity was expressed as percentage (%) of cell integrity relative to control cells (100%).
(§2) All data are presented as mean ± SD of three independent experiments (n = 3) in triplicate. Data were analyzed using one-way analysis of variance (ANOVA) for between-groups comparisons followed by a Tukey’s post-hoc test for multiple comparisons. Values of p < 0.05 were considered to be statistically significant. The analyses were performed using GraphPad Prism 6.0 software (GraphPad Software, Inc., La Jolla, CA).

PC12 cells [2] = settings: cited from earlier work
PC12 cells [3] = assay type: cell-based, rat
Procedure: Culture medium was replaced every 2-3 days.
The effects of α-scoliidine or β-scoliidine on the mitochondrial metabolism of PC12 cells were estimated using 3-(4,5-dimethylthiazol-2-yl)-2,5-diphenyltetrazolium bromide (MTT) reduction assay, as previously described. […] In addition, to the experimental groups mentioned above, two more groups were included in which cells were treated with L-N^Ω-Nitroarginine methyl ester (L-Name; 1 mM) and Bradykinin (Bk; 0.3 µM) in the presence or absence of H2O2. After treatments, cells were treated with 0.5 mg/mL MTT in the same medium culture for 3 h at 37°C. The resulting formazan produced by both cell treatments were dissolved by addition of DMSO. The amount of MTT formazan dissolved in DMSO was determined by measuring absorbance with a microplate reader (Spectramax M3 multi-mode, Molecular Devices, CA, EUA) at 540 nm. Data were expressed as the mean ± SD of mitochondrial metabolism percentage in relation to the control.

PC12 cells [4] = system: PC12 cells; remark: listed apart in the source
Procedure: as §1
PC12 cells were seeded at 2 x 10^4 cells/well in a 96-well plate (Nest Biotechnology, Rahway, USA) for 24 h, and then two neuroprotective assays were evaluated: 1) Cells were pre-treated with α-scoliidine or β-scoliidine (1 µM) at 37°C for 22 h and, after the mediums were replaced containing the peptide and H2O2 (0.6 mM) and incubated for 2 h more; 2) Cells were pre-treated with α-scoliidine or β-scoliidine (1 µM) for 4 h at 37°C and, after the mediums were replaced containing peptide and H2O2 (0.6 mM) and incubated for 20 h more. The control, α-scoliidine and β-scoliidine groups (without H2O2) were incubated under the same conditions. Next, all experimental groups were analyzed by the crystal violet assay.
as §2

cells = settings: cited from earlier work
From the text: The phenomenon of synergistic toxicity of H2O2 effects when two agents are used together, and efficiently potentiate cell damage, has been reported in the literature. Of the several examples of H2O2 toxicity potentiation by oth ...

[5] = system: human neuroblast-like cell line SH-SY5Y; settings: cited from earlier work
From the text: (§3) BPP-11e (<[…]) and BPP-AP (<[…]), for example, ...

human neural stem cells = settings: cited from earlier work
From the text: as §3

ACE = experiment: Cleavage by ACE (stability test, HPLC); assay type: in vitro ADME, rabbit; settings: peptide 30 µM, 37°C, four hours, RP-HPLC, UV 214 nm; for metabolised at 4 h, 30 µM: rabbit, ACE
From the text: All chemicals used in the present study were of analytical reagent grade (purity higher than 95%) and purchased from Calbiochem-Novabiochem Corporation (USA), Gibco BRL (New York, USA), Fluka Chemical Corp. (Buchs, Switzerland) or Sigma-Aldrich Corporation (MO, USA). The ACE I from rabbit lung (EC 3.4.15.1) from Sigma-Aldrich. For the reverse phase chromatography, acetonitrile and TFA were acquired from J.T. Baker. The FRET substrate Abz-FRK(Dnp)P-OH (used by ACE-I assays) were provided by Prof. Adriana Carmona, from the Department of Biophysics of UNIFESP-EPM, São Paulo, Brazil.
Both peptides (30 µM) were incubated separately with ACE ([…]) at 37°C for four hours. Samples containing only the synthetic peptides were used as negative control. After incubation, samples were analyzed by reverse phase chromatography on HPLC (Prominence, Shimadzu), using a Shim-pack VP-ODS C-18 column (4.6× 150 mm). Solvents used were 0.1% (v/v) TFA in water (solvent A), and acetonitrile plus solvent A (9:1) as solvent B. Separations were performed at a flow rate of 1 mL/min and a 10-60% gradient of solvent B over 20 min. In all cases, elution was followed by the measurement of ultraviolet absorption (214 nm).

human neprilysin (NEP) = experiment: Cleavage by NEP; assay type: in vitro ADME; settings: isolated human neprilysin (NEP)
From the text: Table 8 Hydrolyses of α-scoliidine and β-scoliidine by human neprilysin (NEP) and angiotensin-converting enzyme (ACE). | column: Cleavage (%)

[6] = system: nicotinic acetylcholine receptor (nAChR); settings: prey central nervous system; cited from earlier work
From the text: The first study of solitary wasp venoms was reported in 1987. Two kinins, threonine^6-bradykinin (Thr^6-BK) and megascoliakinin, were isolated and characterized from the venoms of the European scoliid wasps Colpa interrupta and Megascolia flavifrons, respectively. […] Thr^6-BK may be a common component of solitary scoliid wasp venoms, since we identified this peptide as a major component in three scoliid wasp venoms found in Japan [[1 ...

[7] = 0.1 to 10 µM, n = 3 in triplicate

C[S+](C)[O-] [DMSO, dimethyl sulfoxide]
Cell integrity after 24 and 48 h (PC12 cells [1]; 24 and 48 h, compared to the control group, peptides 0.1 to 10 µM, DMSO 2.5% (v/v), n = 3 in triplicate): decreased the cell integrity after 24 and 48 h compared to the control group

Cc1cccc([C@H](C)c2cnc[nH]2)c1C [Dexmedetomidine]
Proliferation in a stress condition (PC12 cells [2]): dose-dependent restored impaired proliferation of PC12 cells in a stress condition
Protection from ROS-induced cytotoxicity (PC12 cells [2]): protected PC12 cells from ROS-induced cytotoxicity
p21 and cyclin D1 expression (PC12 cells [2]): decreased expression of tumor suppressor protein p21 and increased expression of cell cycle-related cyclin D1

OO [H2O2, hydrogen peroxide]
Metabolic viability (PC12 cells [3]): 32.23 ± 0.96%
H2O2 concentration above which cytotoxic (PC12 cells [4]): greater than 0.5 mM
H2O2 cytotoxicity dose response, chronic (PC12 cells [4]): also showed a dose-response effect
Reduction of cell viability by H2O2 (PC12 cells [4]): ~ 60%

COC(=O)[C@@H](N)CCCNC(N)=N[N+](=O)[O-] [L-Name, L-N^Ω-Nitroarginine methyl ester]
Metabolic viability under H2O2 (PC12 cells [3]; pre-treatment 4 h, then + H2O2 0.6 mM 20 h, peptides 1 µM, L-Name 1 mM, Bk 0.30 μM, MTT): prevented the reduction of metabolic viability

O=C1O[C@H]([C@@H](O)CO)C(O)=C1O [ascorbic acid]
Effect on intracellular oxidative potential of H2O2 (cells): enhancement of the intracellular oxidative potential of H2O2

<EARPPHPPIPP [BPP-11e]
Neuroprotection against H2O2-induced oxidative stress [5]: not good neuroprotective peptides against the H2O2-induced oxidative stress

<EARPPHPPIPPAP [BPP-AP]
Neuroprotection against H2O2-induced oxidative stress [5]: not good neuroprotective peptides against the H2O2-induced oxidative stress

Aβ 42: amyloid-β peptide (Aβ) isoform, Aβ 42
Effect on cell proliferation (human neural stem cells): promotes cell proliferation of human neural stem cells in a concentration-dependent manner

DYVTVKGFSPLR [α-scoliidine]
Cytotoxicity, cell integrity vs control or DMSO (PC12 cells [1]; 0.1 to 10 µM, 3, 6, 12, 24, and 48 h, mean ± SD of three independent experiments in triplicate): did not show any significant cytotoxicity (p > 0.05) in all dose concentrations, and at the times tested
Cell integrity / neurotoxicity at 6 h (PC12 cells [1]; [7]): showed a tendency for neurotoxicity at 6 h of treatment
Cleavage by ACE (ACE): not cleaved by the metallopeptidase
metabolised at 4 h, 30 µM (ACE): < 0.01%
metabolised (human neprilysin (NEP)): < 0.01%

DYVTVKGFSPLRKA [β-scoliidine]
Cell integrity / neurotoxicity at 6 h (PC12 cells [1]; [7]): decreased cell integrity after 6 h of treatment in all concentration tested
Cleavage by ACE (ACE): not cleaved by the metallopeptidase
metabolised at 4 h, 30 µM (ACE): < 0.01%
metabolised (human neprilysin (NEP)): < 0.01%

RPPGFTPFR [Thr^6-BK, threonine^6-bradykinin]
Block of nAChR synaptic transmission [6]: irreversibly block the synaptic transmission of the nicotinic acetylcholine receptor (nAChR) in the prey central nervous system

RPPGFTPFRKA [megascoliakinin]
Block of nAChR synaptic transmission [6]: irreversibly block the synaptic transmission of the nicotinic acetylcholine receptor (nAChR) in the prey central nervous system
